Assay results from US11518750B2, “3-methylideneoxan-4-one compounds and substituted derivatives thereof as inhibitors of telomerase” (NORTHWESTERN UNIVERSITY, priority 2019, dated 2022).

Assays:
MCF-7 cells = experiment: Compound washout cell viability; type: cell-based, human; conditions: washed, fresh media, 24 h
Procedure: Compound Washout Cell Viability Measurements. MCF-7 cells were plated in 96 well plates and allowed to attach for 24 h. Media was removed, and fresh media containing various concentrations of compound was added, and the plate was incubated for 24 h. Media was removed, cells were washed 2 times with PBS, and fresh media without compound was added. Cells were incubated at 37° C. for an additional “X” h and analyzed as above. Note: “fresh” media constitutes media supplemented with 10% Fetal Bovine Serum (FBS) and 1% pen/strep that has not been previously used for cell culture (e.g., not conditioned media).

CYP1A2 = molecular target: T1, CYP1A2 (Homo sapiens, UniProt P05177); experiment: CYP450 inhibition assay; type: in vitro ADME; conditions: in words
T1 construct: purchased Thermo Fisher
T1 sequence (P05177 1-516): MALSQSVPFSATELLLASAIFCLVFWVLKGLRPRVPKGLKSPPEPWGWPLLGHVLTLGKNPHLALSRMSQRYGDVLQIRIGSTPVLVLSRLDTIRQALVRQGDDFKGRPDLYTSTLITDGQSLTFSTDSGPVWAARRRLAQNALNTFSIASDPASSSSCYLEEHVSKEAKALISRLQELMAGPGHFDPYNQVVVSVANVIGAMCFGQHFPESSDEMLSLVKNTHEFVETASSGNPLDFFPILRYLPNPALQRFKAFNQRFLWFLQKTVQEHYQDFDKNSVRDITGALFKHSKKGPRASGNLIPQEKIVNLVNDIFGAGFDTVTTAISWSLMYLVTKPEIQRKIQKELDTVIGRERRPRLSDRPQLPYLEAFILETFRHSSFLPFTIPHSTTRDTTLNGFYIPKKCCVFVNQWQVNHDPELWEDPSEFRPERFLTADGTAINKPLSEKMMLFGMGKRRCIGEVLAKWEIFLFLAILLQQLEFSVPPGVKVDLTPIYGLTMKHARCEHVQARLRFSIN
Procedure: CYP450 Inhibition Assay. Assay was conducted using the commercially available Vivid CYP1A2 Screening Kit (Thermo Fisher) according to the manufacturer's protocol. α-napthoflavone and DMSO were used as a positive and negative control respectively based on the manufacturer's protocol.

[1] = Liver microsomal stability assay; type: in vitro ADME; conditions: in words
Procedure: Liver Microsomal Stability Assay. Assay was conducted using the Corning UltraPool HLM 150 Mixed Gender microsomal kit (Corning Life Sciences) according to the manufacturer's protocol.

tcTERT = experiment: Protease digestion and mass spectrometry of treated tcTERT; type: binding, Tribolium castaneum; conditions: proteolysis and tandem mass spectrometry
Procedure: Protease Digestion and Mass Spectrometry Analysis. tcTERT (50 μg, ˜600 pmol) was treated with chrolactomycin, NU-1, helenalin, costunolide or DMSO for 1 hr at 37° C. The reaction was diluted with ammonium bicarbonate buffer (pH 8.0), then reduced for 30 min at 56° C. with 10 mM DTT. After cooling to 23° C., the protein was alkylated with 25 mM iodoacetamide for 30 min at 23° C. in the dark, followed by trypsin digestion (2.5 μg, Promega) overnight at 37° C. Digested peptides (˜2 pmol) were injected onto a self-packed precolumn (4 cm POROS10R2) and eluted into the mass spectrometer (LTQ Orbitrap Velos, Thermo Fisher). Peptides were subjected to MS^2 by CAD (electron multiplier detection, relative collision energy 35%, q=0.25).

[2] = N-acetyl serine and N-acetyl lysine reactivity; type: physicochemical; conditions: HPLC
Procedure: N-Acetyl Cysteine, N-Acetyl Lysine and N-Acetyl Serine Kinetic Studies. Assay was conducted as described with minor modifications.^81-84 Briefly, a 1 mM stock solution of NU-1 with internal standard (phenacetin) in DMSO was added to a 50 mM solution of either N-acetyl cysteine, N-acetyl lysine or N-acetyl serine in 67 mM phosphate buffer (pH 7.4), as well as added to a solution of 67 mM phosphate buffer (pH 7.4) control. Samples were taken every 2 min for 2 h and quenched immediately with MeOH and centrifuged upon sampling. Samples were placed on a Waters Acquity UPLC-MS system and measured for the ratio of NU-1 to internal standard intensity to calculate the amount of NU-1 present at each time point relative to the amount of NU-1 at the first injection of the compound in buffer. Assay was conducted in triplicate.

[3] = molecular target: T2, endogenous telomerase in MCF-7 and A549 cells (Homo sapiens, UniProt O14746); experiment: Endogenous telomerase activity after cell treatment (primer extension); type: cell-based; conditions: 10 μM, 24 h
T2 construct: endogenous in cells; host or cells: MCF-7 and A549
Procedure: For FIG. 4C, the control or treated cells were prepared and collected as pellets of 5×10^6 cells each at NW and pellets were shipped to CMRI on dry ice. Frozen cell pellets were thawed on wet ice and suspended in 1 mL telomerase buffer supplemented with 1 mM PMSF. Endogenous telomerase was immunopurified and assayed as described.

[4] = Schiff-base measurement with glycine; type: physicochemical; conditions: incubation with glycine
Procedure: Schiff-Base Measurement. A 1 mM stock solution of NU-1 in DMSO-d6 was added to a solution of 5 mM solution of glycine in D2O in an NMR tube. The mixture was analyzed by ^1H NMR over 48 hours to analyze formation of Schiff-bases with the ketone of NU-1.

T2 sequence (O14746 whole entry): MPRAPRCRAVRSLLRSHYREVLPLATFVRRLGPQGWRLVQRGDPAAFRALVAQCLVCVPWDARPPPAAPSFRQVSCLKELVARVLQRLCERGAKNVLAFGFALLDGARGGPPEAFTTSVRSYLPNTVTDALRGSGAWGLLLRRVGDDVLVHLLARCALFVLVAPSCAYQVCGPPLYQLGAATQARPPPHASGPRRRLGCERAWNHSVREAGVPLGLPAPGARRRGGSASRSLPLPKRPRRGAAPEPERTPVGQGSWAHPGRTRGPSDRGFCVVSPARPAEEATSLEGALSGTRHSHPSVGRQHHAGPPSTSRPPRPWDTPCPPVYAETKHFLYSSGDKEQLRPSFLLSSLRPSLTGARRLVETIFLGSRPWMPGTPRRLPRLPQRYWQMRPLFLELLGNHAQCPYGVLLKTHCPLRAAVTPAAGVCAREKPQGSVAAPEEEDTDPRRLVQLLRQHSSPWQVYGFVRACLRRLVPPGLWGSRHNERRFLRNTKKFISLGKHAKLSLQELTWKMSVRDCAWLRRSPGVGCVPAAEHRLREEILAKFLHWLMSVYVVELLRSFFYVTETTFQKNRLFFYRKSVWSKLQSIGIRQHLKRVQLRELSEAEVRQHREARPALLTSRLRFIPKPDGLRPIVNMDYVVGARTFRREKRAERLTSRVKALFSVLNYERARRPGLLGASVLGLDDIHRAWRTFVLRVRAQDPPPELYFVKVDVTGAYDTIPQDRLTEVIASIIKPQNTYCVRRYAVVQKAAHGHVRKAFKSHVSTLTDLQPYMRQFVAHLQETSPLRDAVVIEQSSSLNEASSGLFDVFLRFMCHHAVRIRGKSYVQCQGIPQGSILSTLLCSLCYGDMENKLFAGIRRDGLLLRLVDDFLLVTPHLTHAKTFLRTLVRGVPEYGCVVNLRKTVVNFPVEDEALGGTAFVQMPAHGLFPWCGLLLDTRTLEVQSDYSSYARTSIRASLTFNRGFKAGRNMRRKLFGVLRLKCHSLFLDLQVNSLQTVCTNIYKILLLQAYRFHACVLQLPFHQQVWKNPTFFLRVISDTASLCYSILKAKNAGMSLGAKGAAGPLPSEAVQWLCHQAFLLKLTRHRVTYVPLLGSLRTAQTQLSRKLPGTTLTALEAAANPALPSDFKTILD
T2 sequence (O60832 whole entry partner): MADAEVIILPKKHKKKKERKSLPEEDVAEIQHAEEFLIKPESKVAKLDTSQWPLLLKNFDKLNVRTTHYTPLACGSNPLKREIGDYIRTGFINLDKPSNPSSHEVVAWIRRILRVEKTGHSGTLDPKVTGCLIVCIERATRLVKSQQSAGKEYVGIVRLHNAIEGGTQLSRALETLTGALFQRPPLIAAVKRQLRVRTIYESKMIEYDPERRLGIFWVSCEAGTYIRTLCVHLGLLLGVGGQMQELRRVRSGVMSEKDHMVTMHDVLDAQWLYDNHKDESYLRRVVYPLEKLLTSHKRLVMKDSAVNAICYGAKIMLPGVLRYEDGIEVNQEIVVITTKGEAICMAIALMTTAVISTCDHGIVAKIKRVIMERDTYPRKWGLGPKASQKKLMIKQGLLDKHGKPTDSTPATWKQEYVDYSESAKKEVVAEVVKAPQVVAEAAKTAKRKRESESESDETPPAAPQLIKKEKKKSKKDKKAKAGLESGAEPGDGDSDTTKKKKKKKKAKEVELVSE
T2 sequence (Q9NPE3 whole entry partner): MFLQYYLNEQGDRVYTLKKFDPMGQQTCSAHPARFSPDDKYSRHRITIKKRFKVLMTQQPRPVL
T2 sequence (Q9NX24 whole entry partner): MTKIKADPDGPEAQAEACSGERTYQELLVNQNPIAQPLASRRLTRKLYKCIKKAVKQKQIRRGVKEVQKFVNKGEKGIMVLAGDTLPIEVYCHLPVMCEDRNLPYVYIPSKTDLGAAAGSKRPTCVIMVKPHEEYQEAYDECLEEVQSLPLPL
T2 sequence (Q9NY12 whole entry partner): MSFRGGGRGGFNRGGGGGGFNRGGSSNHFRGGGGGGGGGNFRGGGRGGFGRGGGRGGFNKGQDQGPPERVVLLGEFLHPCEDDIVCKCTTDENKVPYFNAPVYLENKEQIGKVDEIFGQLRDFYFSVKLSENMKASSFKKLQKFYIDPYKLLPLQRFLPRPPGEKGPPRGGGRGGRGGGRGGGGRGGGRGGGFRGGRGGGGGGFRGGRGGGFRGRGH
T2 sequence (Q9BUR4 whole entry partner): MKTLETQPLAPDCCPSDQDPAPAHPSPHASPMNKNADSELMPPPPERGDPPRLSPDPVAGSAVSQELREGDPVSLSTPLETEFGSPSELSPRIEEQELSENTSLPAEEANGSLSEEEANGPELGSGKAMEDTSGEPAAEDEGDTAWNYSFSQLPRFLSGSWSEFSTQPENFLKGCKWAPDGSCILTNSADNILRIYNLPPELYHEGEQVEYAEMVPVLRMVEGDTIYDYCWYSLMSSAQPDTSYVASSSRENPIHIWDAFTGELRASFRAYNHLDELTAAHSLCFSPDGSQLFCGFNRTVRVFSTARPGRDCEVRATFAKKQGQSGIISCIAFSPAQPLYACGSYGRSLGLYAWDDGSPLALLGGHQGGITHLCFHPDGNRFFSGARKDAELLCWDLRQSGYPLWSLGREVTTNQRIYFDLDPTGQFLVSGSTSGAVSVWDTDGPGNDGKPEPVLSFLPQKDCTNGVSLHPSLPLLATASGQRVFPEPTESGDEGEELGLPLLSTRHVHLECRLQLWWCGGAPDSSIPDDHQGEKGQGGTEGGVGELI

C=C1C(=O)[C@](C)(C(=O)OC)[C@H](CCc2cn(Cc3ccc(F)cc3F)nn2)O[C@@H]1C [NU-1, methyl (2S,3R,6R)-2-(2-(1-(2,4-difluorobenzyl)-1H-1,2,3-triazol-4-yl)ethyl)-3,6-dimethyl-5 methylene-4-oxotetrahydro-2H-pyran-3-carboxylate]
viability after washout (MCF-7 cells): did not restore | CYP450 inhibition profile (CYP1A2): favorable | microsomal stability [1]: satisfactory performance | adduct formation with tcTERT peptides (tcTERT): single modified peptide | amino acid adducts [2]: No amino acid adducts were found | endogenous telomerase activity [3]: completely eliminated | ketone-Schiff base formation [4]: no ketone-Schiff base formation
